Each block holds one compound with its values, some of them ahead of it.
What was measured:
[1] = biological target: Cyclin-dependent kinase 2 (Homo sapiens) (UniProt P24941); assay: Inhibition of human recombinant CDK2 at 500 nM related to control ULK1
[2] = biological target: Leukocyte tyrosine kinase receptor (Homo sapiens) (UniProt P29376); assay: Inhibition of human recombinant LTK at 500 nM related to control ULK1
[3] = biological target: T1, Serine/threonine-protein kinase Nek9 (Homo sapiens) (UniProt Q8TD19); assay: Inhibition of human recombinant NEK9 at 40 nM related to control ULK1
T1 sequence (whole entry): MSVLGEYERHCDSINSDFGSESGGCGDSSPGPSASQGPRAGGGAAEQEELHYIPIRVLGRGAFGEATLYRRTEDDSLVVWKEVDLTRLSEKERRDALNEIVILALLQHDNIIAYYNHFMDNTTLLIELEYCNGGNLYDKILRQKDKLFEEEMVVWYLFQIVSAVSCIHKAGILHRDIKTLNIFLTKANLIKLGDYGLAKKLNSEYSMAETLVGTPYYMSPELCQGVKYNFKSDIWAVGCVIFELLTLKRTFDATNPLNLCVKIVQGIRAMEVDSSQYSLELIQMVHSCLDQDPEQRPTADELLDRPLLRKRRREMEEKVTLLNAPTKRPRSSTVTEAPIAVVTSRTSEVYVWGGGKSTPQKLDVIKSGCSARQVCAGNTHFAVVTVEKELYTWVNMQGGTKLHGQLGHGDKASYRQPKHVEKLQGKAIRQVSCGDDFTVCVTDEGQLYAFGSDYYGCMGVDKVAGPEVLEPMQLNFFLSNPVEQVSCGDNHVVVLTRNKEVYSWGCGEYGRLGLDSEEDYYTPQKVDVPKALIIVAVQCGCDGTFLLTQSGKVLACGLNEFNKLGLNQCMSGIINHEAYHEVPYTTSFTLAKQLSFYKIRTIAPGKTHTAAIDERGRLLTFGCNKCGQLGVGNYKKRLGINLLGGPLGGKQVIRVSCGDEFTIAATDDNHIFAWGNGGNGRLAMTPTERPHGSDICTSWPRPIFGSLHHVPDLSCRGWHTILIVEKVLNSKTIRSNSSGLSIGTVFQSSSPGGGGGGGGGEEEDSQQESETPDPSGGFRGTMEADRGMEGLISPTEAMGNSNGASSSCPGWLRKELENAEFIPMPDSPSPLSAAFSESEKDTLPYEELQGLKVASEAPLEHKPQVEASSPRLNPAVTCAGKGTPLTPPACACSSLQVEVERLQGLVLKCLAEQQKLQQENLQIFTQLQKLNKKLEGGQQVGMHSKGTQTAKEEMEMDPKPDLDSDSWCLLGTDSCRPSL

[4] = biological target: SAFB-like transcription modulator (Homo sapiens) (UniProt Q9NWH9); assay: Inhibition of human recombinant MET at 40 nM related to control ULK1
[5] = biological target: Epithelial discoidin domain-containing receptor 1 (Homo sapiens) (UniProt Q08345); assay: Inhibition of human recombinant DDR1 at 40 nM in presence of ATP by radiometric assay relative to control
[6] = biological target: Death-associated protein kinase 2 (Homo sapiens) (UniProt Q9UIK4); assay: Inhibition of human recombinant DAPK2 at 40 nM related to control ULK1
[7] = biological target: T2, NUAK family SNF1-like kinase 1 (Homo sapiens) (UniProt O60285); assay: Inhibition of human recombinant NuaK1 at 40 nM in presence of ATP by radiometric assay relative to control
T2 sequence (whole entry): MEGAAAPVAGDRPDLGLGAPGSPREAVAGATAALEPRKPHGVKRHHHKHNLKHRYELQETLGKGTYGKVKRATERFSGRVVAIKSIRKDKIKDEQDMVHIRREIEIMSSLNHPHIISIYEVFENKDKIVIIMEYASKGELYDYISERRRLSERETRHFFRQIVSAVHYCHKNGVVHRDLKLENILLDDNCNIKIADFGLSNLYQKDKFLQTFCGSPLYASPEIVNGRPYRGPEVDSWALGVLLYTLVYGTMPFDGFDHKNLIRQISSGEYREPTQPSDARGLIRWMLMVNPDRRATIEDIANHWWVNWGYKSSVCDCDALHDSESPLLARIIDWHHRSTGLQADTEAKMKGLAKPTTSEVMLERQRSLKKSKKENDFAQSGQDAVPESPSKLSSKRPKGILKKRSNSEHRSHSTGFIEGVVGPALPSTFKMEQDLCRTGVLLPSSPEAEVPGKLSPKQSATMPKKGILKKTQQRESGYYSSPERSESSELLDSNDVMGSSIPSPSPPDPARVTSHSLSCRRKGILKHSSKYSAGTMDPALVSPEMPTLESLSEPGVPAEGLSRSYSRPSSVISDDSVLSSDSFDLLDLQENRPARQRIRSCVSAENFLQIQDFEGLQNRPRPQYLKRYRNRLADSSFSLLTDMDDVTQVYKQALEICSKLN

[8] = biological target: Serine/threonine-protein kinase 33 (Homo sapiens) (UniProt Q9BYT3); assay: Inhibition of human recombinant STK33 at 15 nM in presence of ATP by radiometric assay relative to control
[9] = biological target: PAS domain-containing serine/threonine-protein kinase (Homo sapiens) (UniProt Q96RG2); assay: Inhibition of human recombinant PASK at 15 nM related to control ULK1
[10] = biological target: T3, Inhibitor of nuclear factor kappa-B kinase subunit alpha (Homo sapiens) (UniProt O15111); assay: Inhibition of human recombinant IKKa at 15 nM in presence of ATP by radiometric assay relative to control
T3 sequence (whole entry): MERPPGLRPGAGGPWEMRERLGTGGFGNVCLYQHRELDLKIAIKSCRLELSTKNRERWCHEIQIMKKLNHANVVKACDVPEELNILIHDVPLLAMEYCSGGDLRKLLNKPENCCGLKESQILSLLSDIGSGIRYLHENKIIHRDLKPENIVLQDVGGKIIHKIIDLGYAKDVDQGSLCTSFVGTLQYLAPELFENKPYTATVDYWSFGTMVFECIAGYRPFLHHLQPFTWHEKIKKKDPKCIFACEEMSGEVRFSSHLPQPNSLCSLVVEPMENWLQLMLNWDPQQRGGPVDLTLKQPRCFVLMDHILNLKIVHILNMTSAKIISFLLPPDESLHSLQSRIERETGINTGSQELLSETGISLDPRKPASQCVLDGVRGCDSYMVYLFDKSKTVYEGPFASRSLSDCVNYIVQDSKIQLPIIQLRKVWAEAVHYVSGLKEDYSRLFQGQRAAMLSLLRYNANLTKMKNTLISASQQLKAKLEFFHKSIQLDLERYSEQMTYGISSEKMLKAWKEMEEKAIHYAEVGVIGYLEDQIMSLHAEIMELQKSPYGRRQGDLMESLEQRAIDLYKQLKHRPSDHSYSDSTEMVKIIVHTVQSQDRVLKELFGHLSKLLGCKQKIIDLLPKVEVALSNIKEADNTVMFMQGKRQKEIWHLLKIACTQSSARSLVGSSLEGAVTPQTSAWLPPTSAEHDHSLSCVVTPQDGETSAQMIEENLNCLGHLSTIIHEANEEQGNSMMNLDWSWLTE

Chain of Epithelial discoidin domain-containing receptor 1 (Homo sapiens) (Q08345 whole entry, the tested form may be a part): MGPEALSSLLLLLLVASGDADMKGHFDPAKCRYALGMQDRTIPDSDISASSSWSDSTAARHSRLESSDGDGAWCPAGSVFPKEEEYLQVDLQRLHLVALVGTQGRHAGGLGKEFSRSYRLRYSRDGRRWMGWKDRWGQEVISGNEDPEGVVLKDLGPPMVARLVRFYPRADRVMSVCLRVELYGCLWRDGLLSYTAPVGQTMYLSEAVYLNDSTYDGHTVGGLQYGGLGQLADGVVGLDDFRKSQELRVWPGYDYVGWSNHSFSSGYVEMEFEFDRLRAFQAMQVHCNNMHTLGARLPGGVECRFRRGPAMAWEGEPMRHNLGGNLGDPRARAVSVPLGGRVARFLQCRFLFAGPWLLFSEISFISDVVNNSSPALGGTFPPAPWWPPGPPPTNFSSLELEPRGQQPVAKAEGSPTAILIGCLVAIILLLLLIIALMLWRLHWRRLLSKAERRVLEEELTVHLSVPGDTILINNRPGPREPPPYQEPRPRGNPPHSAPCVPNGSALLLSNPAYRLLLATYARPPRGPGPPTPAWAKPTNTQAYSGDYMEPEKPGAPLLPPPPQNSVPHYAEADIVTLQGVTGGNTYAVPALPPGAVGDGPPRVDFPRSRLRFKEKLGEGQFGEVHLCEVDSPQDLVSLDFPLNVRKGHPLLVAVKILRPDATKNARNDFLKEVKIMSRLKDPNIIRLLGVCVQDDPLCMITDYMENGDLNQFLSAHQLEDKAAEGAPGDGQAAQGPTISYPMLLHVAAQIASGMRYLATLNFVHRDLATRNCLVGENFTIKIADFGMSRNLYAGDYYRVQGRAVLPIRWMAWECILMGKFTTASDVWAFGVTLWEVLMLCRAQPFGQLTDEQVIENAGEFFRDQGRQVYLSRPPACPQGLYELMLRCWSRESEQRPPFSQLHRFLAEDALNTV
Chain of Leukocyte tyrosine kinase receptor (Homo sapiens) (P29376 whole entry): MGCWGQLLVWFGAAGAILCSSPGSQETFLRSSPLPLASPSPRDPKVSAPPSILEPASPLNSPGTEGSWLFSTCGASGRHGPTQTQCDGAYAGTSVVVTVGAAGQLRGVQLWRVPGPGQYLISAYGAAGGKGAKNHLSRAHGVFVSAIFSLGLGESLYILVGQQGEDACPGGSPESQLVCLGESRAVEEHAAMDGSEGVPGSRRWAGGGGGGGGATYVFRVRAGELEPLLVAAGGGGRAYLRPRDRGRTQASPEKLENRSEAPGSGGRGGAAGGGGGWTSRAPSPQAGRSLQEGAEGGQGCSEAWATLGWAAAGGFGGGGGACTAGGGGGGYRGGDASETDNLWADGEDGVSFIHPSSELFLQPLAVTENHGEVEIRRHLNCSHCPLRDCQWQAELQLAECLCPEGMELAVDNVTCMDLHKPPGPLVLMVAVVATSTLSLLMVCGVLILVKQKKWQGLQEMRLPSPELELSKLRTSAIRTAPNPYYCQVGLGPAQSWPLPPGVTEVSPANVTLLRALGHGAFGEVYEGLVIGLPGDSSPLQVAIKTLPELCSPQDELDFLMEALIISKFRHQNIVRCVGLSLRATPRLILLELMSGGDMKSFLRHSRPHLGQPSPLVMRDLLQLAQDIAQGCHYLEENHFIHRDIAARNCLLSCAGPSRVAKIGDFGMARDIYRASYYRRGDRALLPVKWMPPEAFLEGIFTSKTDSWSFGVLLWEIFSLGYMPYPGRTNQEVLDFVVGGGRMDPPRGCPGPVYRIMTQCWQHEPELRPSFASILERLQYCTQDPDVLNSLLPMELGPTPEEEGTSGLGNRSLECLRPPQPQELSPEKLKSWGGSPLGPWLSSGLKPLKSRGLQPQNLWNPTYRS
Chain of SAFB-like transcription modulator (Homo sapiens) (Q9NWH9 whole entry, the tested form may be a part): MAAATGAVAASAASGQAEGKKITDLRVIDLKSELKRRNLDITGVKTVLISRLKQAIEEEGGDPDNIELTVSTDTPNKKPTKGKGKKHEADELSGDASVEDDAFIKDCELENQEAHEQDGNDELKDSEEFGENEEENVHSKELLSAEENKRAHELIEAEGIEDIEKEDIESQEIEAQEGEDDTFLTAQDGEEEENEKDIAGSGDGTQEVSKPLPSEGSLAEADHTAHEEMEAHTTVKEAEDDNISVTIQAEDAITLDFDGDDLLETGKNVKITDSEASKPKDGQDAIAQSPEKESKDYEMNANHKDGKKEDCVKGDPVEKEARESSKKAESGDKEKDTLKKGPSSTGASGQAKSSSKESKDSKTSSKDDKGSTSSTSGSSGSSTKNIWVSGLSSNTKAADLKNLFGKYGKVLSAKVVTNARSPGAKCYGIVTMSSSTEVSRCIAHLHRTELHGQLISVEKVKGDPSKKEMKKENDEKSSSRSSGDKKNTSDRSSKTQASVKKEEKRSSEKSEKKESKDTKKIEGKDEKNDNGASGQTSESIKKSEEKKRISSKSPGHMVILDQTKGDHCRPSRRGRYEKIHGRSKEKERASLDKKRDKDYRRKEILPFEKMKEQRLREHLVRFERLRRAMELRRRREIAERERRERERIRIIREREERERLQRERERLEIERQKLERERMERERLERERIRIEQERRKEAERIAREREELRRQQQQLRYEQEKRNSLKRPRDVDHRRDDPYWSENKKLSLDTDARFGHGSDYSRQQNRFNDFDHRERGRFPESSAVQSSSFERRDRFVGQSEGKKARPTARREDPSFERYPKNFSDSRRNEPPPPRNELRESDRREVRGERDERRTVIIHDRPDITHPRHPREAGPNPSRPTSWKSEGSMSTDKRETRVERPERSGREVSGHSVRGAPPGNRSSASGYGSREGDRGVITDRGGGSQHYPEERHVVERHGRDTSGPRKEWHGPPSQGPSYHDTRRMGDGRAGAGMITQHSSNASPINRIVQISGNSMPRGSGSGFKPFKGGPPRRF
Chain of Serine/threonine-protein kinase 33 (Homo sapiens) (Q9BYT3 whole entry, looked up, the tested form may be a part): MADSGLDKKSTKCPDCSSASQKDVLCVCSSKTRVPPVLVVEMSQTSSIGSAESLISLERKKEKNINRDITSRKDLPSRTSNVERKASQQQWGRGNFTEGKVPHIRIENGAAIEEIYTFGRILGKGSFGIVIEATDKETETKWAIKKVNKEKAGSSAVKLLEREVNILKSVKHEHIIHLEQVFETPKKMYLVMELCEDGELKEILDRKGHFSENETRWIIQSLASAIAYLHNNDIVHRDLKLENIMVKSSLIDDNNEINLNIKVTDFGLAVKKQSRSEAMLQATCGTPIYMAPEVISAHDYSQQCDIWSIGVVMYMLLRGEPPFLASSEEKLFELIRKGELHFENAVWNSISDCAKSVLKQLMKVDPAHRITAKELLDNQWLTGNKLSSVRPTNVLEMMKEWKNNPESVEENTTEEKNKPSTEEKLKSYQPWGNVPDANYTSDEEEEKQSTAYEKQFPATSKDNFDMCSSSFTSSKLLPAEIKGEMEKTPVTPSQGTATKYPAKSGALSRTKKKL
Chain of PAS domain-containing serine/threonine-protein kinase (Homo sapiens) (Q96RG2 whole entry, the tested form may be a part): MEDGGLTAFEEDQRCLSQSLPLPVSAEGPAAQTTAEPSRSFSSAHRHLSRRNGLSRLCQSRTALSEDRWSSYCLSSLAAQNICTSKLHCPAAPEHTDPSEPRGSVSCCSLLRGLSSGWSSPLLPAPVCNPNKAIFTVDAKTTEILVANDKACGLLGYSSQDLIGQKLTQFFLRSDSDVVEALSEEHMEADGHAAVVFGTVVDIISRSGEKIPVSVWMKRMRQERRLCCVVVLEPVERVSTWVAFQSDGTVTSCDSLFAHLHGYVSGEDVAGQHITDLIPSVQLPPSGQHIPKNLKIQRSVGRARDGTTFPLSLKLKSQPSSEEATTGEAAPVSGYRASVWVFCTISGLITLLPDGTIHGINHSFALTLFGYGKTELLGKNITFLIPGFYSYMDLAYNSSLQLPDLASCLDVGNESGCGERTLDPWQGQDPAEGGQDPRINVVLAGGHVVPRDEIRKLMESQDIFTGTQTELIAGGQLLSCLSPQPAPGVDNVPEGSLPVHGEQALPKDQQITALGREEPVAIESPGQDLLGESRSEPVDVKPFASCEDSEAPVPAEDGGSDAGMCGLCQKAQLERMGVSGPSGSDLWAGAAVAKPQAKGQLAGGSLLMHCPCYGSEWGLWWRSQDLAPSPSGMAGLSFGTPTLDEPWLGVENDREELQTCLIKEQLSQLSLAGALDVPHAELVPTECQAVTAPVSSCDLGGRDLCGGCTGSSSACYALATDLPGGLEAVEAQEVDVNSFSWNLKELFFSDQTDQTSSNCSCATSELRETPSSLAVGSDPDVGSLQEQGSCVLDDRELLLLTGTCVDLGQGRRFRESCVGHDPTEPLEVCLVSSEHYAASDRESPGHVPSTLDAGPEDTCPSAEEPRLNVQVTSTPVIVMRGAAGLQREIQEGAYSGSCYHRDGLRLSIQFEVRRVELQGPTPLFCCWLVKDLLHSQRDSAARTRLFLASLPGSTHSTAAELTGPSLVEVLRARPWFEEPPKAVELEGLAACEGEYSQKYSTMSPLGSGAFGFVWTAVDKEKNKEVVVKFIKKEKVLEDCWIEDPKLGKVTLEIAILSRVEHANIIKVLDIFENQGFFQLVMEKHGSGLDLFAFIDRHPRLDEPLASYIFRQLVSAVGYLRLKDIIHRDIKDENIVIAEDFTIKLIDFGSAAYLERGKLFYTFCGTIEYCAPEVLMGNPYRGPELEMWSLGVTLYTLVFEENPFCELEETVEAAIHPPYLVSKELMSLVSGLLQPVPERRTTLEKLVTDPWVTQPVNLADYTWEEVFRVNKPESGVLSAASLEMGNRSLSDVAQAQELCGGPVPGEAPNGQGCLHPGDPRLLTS
Chain of Death-associated protein kinase 2 (Homo sapiens) (Q9UIK4 whole entry, looked up): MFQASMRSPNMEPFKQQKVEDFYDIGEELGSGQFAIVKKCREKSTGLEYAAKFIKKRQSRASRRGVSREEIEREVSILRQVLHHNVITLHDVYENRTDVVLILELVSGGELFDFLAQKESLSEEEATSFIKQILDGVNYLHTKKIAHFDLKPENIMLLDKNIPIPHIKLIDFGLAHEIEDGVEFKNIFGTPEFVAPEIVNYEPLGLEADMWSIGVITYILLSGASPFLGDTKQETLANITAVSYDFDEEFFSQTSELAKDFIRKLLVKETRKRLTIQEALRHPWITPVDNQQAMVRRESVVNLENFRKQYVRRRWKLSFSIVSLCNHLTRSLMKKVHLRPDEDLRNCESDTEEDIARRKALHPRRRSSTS

fold change (FC) [1]: 0.05
fold change (FC) [2]: 0.04
SMILES: CNC(=O)c1ccccc1Oc1nc(Nc2cc(OC)c(OC)c(OC)c2)ncc1Br

fold change (FC) [4]: 0.22
inhibition [5]: 18%
inhibition [7]: 5%
SMILES: O=C(N[C@@H](C1CC1)C(F)(F)F)c1cc(-c2cnn3cc(-c4ccc(F)cc4)cnc23)cs1
fold change (FC) [3]: 0.07
fold change (FC) [6]: 0

inhibition [8]: 16%
fold change (FC) [9]: 0
inhibition [10]: 1%
SMILES: CC(C)[C@H](NC(=O)c1cc(-c2cnn3cc(-c4ccc(OCCN5CCCCC5)cc4)cnc23)cs1)C(F)(F)F

— ChEMBL document CHEMBL5653631, “A Potent and Selective ULK1 Inhibitor Suppresses Autophagy and Sensitizes Cancer Cells to Nutrient Stress” (iScience, 2018)
